Test results published in patent US20070203212A1, “METHOD OF TREATING OSTEOARTHRITIS” (WARNER-LAMBERT COMPANY, priority 2002, published 2007).

How the values were obtained:
[1] = test system: monosodium iodoacetate (MIA)-induced osteoarthritis; test: MIA rat model, acute single oral dose: change in hind paw weight distribution (joint pain); assay type: in vivo; settings: for Day 7 2 hr. (% ± SEM) inhibition of MIA-induced change in hind paw weight distribution / Day 7 4 hr. (% ± SEM) inhibition of MIA-induced change in hind paw weight distribution / Day 14 2 hr. (% ± SEM) inhibition of MIA-induced change in hind paw weight distribution / Day 14 4 hr. (% ± SEM) inhibition of MIA-induced change in hind paw weight distribution / Day 7 6 hr. (% ± SEM) inhibition of MIA-induced change in hind paw weight distribution / Day 14 6 hr. (% ± SEM) inhibition of MIA-induced change in hind paw weight distribution: single oral dose 30 mg/kg; for Day 7 2 hr. (% ± SEM) inhibition of MIA-induced change in hind paw weight distribution: Day 7, 2 hours post dose; for Day 7 4 hr. (% ± SEM) inhibition of MIA-induced change in hind paw weight distribution: Day 7, 4 hours post dose; for Day 14 2 hr. (% ± SEM) inhibition of MIA-induced change in hind paw weight distribution: Day 14, 2 hours post dose; for Day 14 4 hr. (% ± SEM) inhibition of MIA-induced change in hind paw weight distribution: Day 14, 4 hours post dose; for Day 7 6 hr. (% ± SEM) inhibition of MIA-induced change in hind paw weight distribution: Day 7, 6 hours post dose; for Day 14 6 hr. (% ± SEM) inhibition of MIA-induced change in hind paw weight distribution: Day 14, 6 hours post dose
Protocol: (§1) It should be appreciated that in Biological Methods 1, 2, 4, and 5 below, hind paw weight bearing differentials between the paw of the limb having the control joint (in animals administered test compound vehicle only) and the paw of the limb having the contralateral test joint (in control or inducement animals administered test compound vehicle only and in treatment animals administered test compound dissolved in test compound vehicle) were determined using an incapacitance tester, model 2KG (Linton Instrumentation, Norfolk, United Kingdom). The incapacitance tester has a chamber on top with an outwardly sloping front wall that supports a rat's front limbs, and two weight sensing pads, one for each hind paw, that facilitates this determination. The hind paw weight bearing differentials were expressed in grams and calculated as follows: (the average weight in grams placed on the control limb minus the average weight in grams placed on the contralateral test limb for each of the inducement or treatment animals) minus (the average weight in grams placed on the control limb minus the average weight in grams placed on the contralateral test limb for each of the control animals). All results were statistically analyzed by comparing the average results for an induction or treatment group with the average result for its control group at the same time point using analysis of covariance (“ANCOVA”) followed by the Hoehberg's procedure and those with statistical significance had p<0.05 unless otherwise noted.
The rats were anesthetized with 5% volume/volume (“v/v”) isoflurane gas and maintained with 2% v/v isoflurane gas. The anesthetized rats were given a single intra-articular injection of 1 mg of MIA through the infrapatellar ligament of the right knee. MIA was dissolved in physiologic saline and administered in a volume of 50 μL. The contralateral control knee was injected with 50 μL of physiologic saline. Administration of isoflurane gas was discontinued, and the rats became fully conscious about 5 minutes later.
Shifts in hind paw weight distribution from the right to the left hind paws supporting the right (arthritic) and the left (contralateral control) hind leg knee joints were utilized as an index of joint pain and as a measure of compound efficacy. An incapacitance tester (Model 2KG, Linton Instrumentation, UK) was employed for determination of hind paw weight distribution. Each data point is the mean of three readings of 5 seconds duration.
CI-1027 (i.e., 6-(5-carboxy-5-methyl-hexyloxy)-2,2-dimethyl-hexanoic acid, calcium salt) was dissolved in hydroxypropylmethylcellulose (“HPMC”) vehicle (0.05% HPMC+0.2% Tween 80; compound amount was adjusted based on the percent of free acid, i.e., 6-(5-carboxy-5-methyl-hexyloxy)-2,2-dimethyl-hexanoic acid).
[…] Rats were then given a single, 10, 30, or 100 mg/kg, dose of CI-1027 via oral gavage (PO). Changes in hind paw weight distribution were determined 2, 4 and 6 hours post-compound administration.
6-(5-carboxy-5-methyl-hexyloxy)-2,2-dimethyl-hexanoic acid, calcium salt (“CI-1027”) and rofecoxib was tested in the rat MIA model in an acute dosing paradigm as described previously. MIA was injected into the right knee and saline into the left knee of all rats on Day 0. […] Two hours later, the rats were reassessed. The results for inhibition of pain, expressed as a percentage±standard error of the mean, are shown below in Table 5. The percent inhibition of pain was determined as described above in Biological Method 1. […] N=8 rats per group.

[2] = test system: carrageenan-induced thermal hyperalgesia; test: Carrageenan-induced thermal hyperalgesia (CITH), paw withdrawal latency; assay type: in vivo, rat; settings: Day 1
Protocol: Male Sprague Dawley rats (200-300 g), obtained from Charles River, were housed in groups of 2 under a 12 hour light/dark cycle with food and water ad libitum. Animals were allowed to acclimate to the test room one hour prior to testing.
Thermal hyperalgesia was assessed using the rat plantar test (apparatus from Univ. California, San Diego) following a modified method of Hargreaves et al., 1988. Rats were habituated to the apparatus, which consisted of three perspex boxes that individually housed […] on an elevated glass table. A mobile radiant heat source (halogen lamp) was located under the glass table and focused onto the hind paw. Paw withdrawal latencies (PWL) were recorded in seconds (“s”). An automatic cut off point of 22.5 s was set to prevent tissue damage. The mean of 2-3 PWL was taken at each time point for both hind paws of each animal. The apparatus was calibrated to give a PWL of approximately 10 s before carrageenan administration.
After basal PWL were determined, animals receive an intraplantar 100 μL of 10 mg/mL) into the right hind paw. Lambda carrageenan (Sigma Chemical Co.) was dissolved in isotonic saline 5 minutes prior to injecting. PWL were reassessed following the same protocol 2 hours post carrageenan (this time point represented the start of peak hyperalgesia) to ascertain that hyperalgesia had developed. 6-(5-Carboxy-5-methyl-hexyloxy)-2,2-dimethyl-hexanoic acid, calcium salt was then administered orally via oral dosing needles 2.5 hours post carrageenan injection, and PWL were taken again at 30- or 60-minute intervals post drug administration for 6 hours.
Data consisted of the mean of 2-3 reads/paw for individual animals. Group data was the compiled individual means. Percent inhibition was calculated as follows for each time point: (mean drug treated−mean control)/(mean baseline−mean control)×100.

[3] = test system: human recombinant IL-6/IL-6sR induced joint pain; test: IL-6 with IL-6 soluble receptor induced joint pain in rat; assay type: in vivo; settings: single oral dose 30 mg/kg
Protocol: as §1
Human recombinant IL-6 (100 ng per rat; R&D Systems, Minneapolis, Minn.) was incubated at room temperature with human recombinant IL-6 soluble receptor (300 ng per rat; R&D Systems, Minneapolis, Minn.) in phosphate buffered saline (“PBS”) for 15 minutes prior to injection. Rats were anesthetized with 5% volume/volume (“v/v”) isoflurane gas and maintained with 2% v/v isoflurane gas. The anesthetized rats were given a single intra-articular injection of IL-6/WL-6sR through the infrapatellar ligament of the right knee in a volume of 50 μL. The contralateral control knee was injected with 50 μL of PBS. Administration of isoflurane gas was discontinued, and the rats became fully conscious about 5 minutes later.
Shifts in hind paw weight distribution from the right (arthritic) to the left (contralateral control) paws were utilized as an index of joint pain and as a measure of compound efficacy. An incapacitance tester (Model 2KG, Linton Instrumentation, UK) was employed for determination of hind paw weight distribution. Each data point is the mean of three, 5-second readings.
CI-1027 was dissolved in BPMC vehicle as described above. Baseline changes in hind paw weight distribution readings were determined one day prior to injection of IL-6/IL-6sR. On the day of the experiment (Day 0), a single dose of CI-1027 (10, 30 or 100 mg/kg) was given via oral gavage 3 hours prior to injection of IL-6/IL-6sR (n=10 rats per group). Changes in hind paw weight distribution were determined one, three, and six hours after injection of IL-6/IL-6sR.
In Table 4 below, data from the method of Biological Method 5 are expressed as a percent inhibition of a change in hind paw weight distribution ± the standard error of the mean. The percents inhibition were calculated as follows. Percent inhibition of a change in hind paw weight distribution [formula] wherein: ΔWC is the hind-paw weight differential between the healthy limb and the hrIL-6+ hrIL-6sR injected limb of the control animal group administered vehicle alone, as measured at time 1, 3, or 6 hours post injection; and
ΔWG is the hind-paw weight differential between the healthy limb and the hrIL-6+ hrIL-6sR injected limb of a treatment animal group as measured at time 1, 3, or 6 hours post injection.

[4] = test system: monoclonal antibody-induced arthritis; test: Monoclonal antibody-induced arthritis (MAIA) mouse model, footpad and ankle swelling; assay type: in vivo; design: footpad and ankle swelling: dose or concentration left out as unconfirmed; settings: BALB/c mice
Protocol: In a typical MAIA experiment, groups of four mice were injected intraperitoneally (“i.p.”) with 0.4 mL (BALB/c and DBA/1 strains) or 0.8 mL (C57BL/6, 129X1/SvJ, C3H/HeJ, and C3H/FeJ strains) with a 10 mg/mL solution of Arthrogen-CIA Monoclonal Antibody Blend (Chemicon International, Inc.). Two days later, the mice were injected i.p. with 0.2 mL of a 0.25 mg/mL solution of LPS (lipopolysaccharide form Escherichia coli (“E. coli”) strain 0111B4) in PBS. Footpad and ankle size was assessed using a Dyer Digital Caliper (#655-030-4916) on the day of mAb injection, and every two days following LPS injection.

| Compound | Day 7 2 hr. (% ± SEM) inhibition of MIA-induced change in hind paw weight distribution [1] | Day 7 4 hr. (% ± SEM) inhibition of MIA-induced change in hind paw weight distribution [1] | Day 14 2 hr. (% ± SEM) inhibition of MIA-induced change in hind paw weight distribution [1] | Day 14 4 hr. (% ± SEM) inhibition of MIA-induced change in hind paw weight distribution [1] | CITH (%) percentage inhibition, paw withdrawal latency ([2]; single oral dose 30 mg/kg) | Day 7 6 hr. (% ± SEM) inhibition of MIA-induced change in hind paw weight distribution [1] | Day 14 6 hr. (% ± SEM) inhibition of MIA-induced change in hind paw weight distribution [1] | CITH (%) percentage inhibition, paw withdrawal latency ([2]; single oral dose 100 mg/kg) | 1 hr. (% ± SEM) inhibition of (IL-6/IL-6sR)-induced change in hind paw weight distribution ([3]; Day 1, 1 hour post injection of IL-6/IL-6sR) | 3 hr. (% ± SEM) inhibition of (IL-6/IL-6sR)-induced change in hind paw weight distribution ([3]; Day 1, 3 hours post injection of IL-6/IL-6sR) | 6 hr. (% ± SEM) inhibition of (IL-6/IL-6sR)-induced change in hind paw weight distribution ([3]; Day 1, 6 hours post injection of IL-6/IL-6sR) | Mean pain alleviation at 2 hours post administration (% ± SEM) ([1]; rofecoxib 3 mg/kg PO alone, Day 14) | footpad and ankle swelling [4] |
| --- | --- | --- | --- | --- | --- | --- | --- | --- | --- | --- | --- | --- | --- |
| CC(C)(CCCOCCCC(C)(C)C(=O)O)C(=O)O [A2, 5,5′-oxybis(2,2-dimethylpentanoic acid)] | −11 ± 15^ % | 16 ± 15% | 9 ± 13% | 9 ± 20% | −3% | – | – | – | – | – | – | – | – |
| CC(C)(CCCCCCCCCC(C)(C)C(=O)O)C(=O)O [A4, 2,2,12,12-tetramethyltridecanedioic acid] | 25 ± 5% | 38 ± 7% | 35 ± 6% | 29 ± 8% | 118% | 43 ± 6% | 55 ± 7% | 115% | 70 ± 9% | 79 ± 5% | 26 ± 6% | – | – |
| CC(C)(CCOCCC(C)(C)C(=O)O)C(=O)O [A3, 4,4′-oxybis(2,2-dimethylbutanoic acid)] | 20 ± 4% | 34 ± 5% | 33 ± 7% | 36 ± 3% | 20% | 81 ± 6% | 27 ± 9% | – | – | – | – | – | – |
| CS(=O)(=O)c1ccc(C2=C(c3ccccc3)C(=O)OC2)cc1 [Rofecoxib, reference compound] | – | – | – | – | – | – | – | – | – | – | – | 23 ± 7% | – |
| CN(Cc1cnc2nc(N)nc(N)c2n1)c1ccc(C(=O)N[C@@H](CCC(=O)O)C(=O)O)cc1 [methotrexate, N-[4-[[(2,4-diamino-6-pteridinyl)methyl]methylamino]benzoyl]-L-glutamic acid, reference compound] | – | – | – | – | – | – | – | – | – | – | – | – | significantly inhibit footpad and ankle swelling |
| CC(C)(CCCCCOCCCCCC(C)(C)C(=O)O)C(=O)O [A1, 7,7′-oxybis(2,2-dimethylheptanoic acid)] | 50 ± 11% | 15 ± 14% | −3 ± 15% | −9 ± 17% | 22% | – | – | – | – | – | – | – | – |
